Measured values as given in paper PMC9051106, “Structural insights into TRPV2 activation by small molecules” (Nature Communications, 2022).
“And” between values parts separate entries of the source, which are not always exact repeats. Equal entries are not always repeated.

Assays:
wildtype rat TRPV2 [1] = target: T1, wildtype rat TRPV2 (Rattus norvegicus, UniProt Q9WUD2)
T1 sequence (Q9WUD2 1-761): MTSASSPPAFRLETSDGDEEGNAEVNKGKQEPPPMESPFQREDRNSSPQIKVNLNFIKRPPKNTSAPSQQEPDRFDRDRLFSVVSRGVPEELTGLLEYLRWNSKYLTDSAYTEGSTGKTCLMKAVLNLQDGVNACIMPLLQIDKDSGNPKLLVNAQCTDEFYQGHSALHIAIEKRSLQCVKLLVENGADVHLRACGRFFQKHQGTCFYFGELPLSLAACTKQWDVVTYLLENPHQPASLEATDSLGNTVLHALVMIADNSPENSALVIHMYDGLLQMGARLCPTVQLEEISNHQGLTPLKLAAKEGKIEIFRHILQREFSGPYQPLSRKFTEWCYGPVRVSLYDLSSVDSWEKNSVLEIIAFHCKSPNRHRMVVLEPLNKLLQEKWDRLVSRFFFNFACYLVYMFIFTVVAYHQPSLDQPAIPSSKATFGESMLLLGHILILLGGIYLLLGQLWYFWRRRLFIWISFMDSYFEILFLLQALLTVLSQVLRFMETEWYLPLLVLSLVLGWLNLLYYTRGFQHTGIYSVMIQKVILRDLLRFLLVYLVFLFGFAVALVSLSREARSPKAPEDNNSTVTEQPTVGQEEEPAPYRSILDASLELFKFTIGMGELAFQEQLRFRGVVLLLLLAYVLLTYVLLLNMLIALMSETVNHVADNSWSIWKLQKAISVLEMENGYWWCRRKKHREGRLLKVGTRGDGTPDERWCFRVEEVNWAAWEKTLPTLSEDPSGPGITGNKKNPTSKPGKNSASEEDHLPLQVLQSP
Method: (§1) Nanofectin (PAA, Pasching, Austria) was used to transfect HEK293T cells with WT rat TRPV2, Arg535Lys rat TRPV2, Arg539Lys rat TRPV2, His521Ala rat TRPV2, His521Asn rat TRPV2, His521Ala/Arg539Lys rat TRPV2, Thr522Ala rat TRPV2 and Tyr525Ala rat TRPV2. Mutants were generated according to the instructions of the manufacturer by site directed mutagenesis with the quick-change lightning site-directed mutagenesis kit (Aglient, Waldbronn, Germany). […] Cells were cultured at 37 °C with 5% CO2 in Dulbecco’s modified Eagle medium nutrient mixture F12 (DMEM/F12 Gibco/Invitrogen, Darmstadt, Germany) and supplemented with 10% fetal bovine serum, (Biochrom, Berlin, Germany).
(§2) Whole-cell voltage clamp was performed with an EPC10 USB HEKA amplifier (HEKA Electronik, Lamprecht, Germany), much as previously described. Signals were low passed at 1 kHz and sampled at 2–10 kHz. Patch pipettes were pulled from borosilicate glass tubes (TW150F-3; World Precision Instruments, Berlin, Germany) to give a resistance of about 3 MΩ. Cells were held at −60 mV and all recordings were performed at room temperature. The external solution contained: 140 mM NaCl, 5 mM KCl, 2 mM MgCl2, 5 mM EGTA, 10 mM glucose, and 10 mM HEPES, pH 7.4 (adjusted with NaOH). Calcium was omitted in order to avoid desensitization. The standard pipette solution contained: 140 mM KCl, 2 mM MgCl2, 5 mM EGTA and 10 mM HEPES, pH 7.4 (adjusted with KOH). A gravity-driven glass multi-barrel perfusion system was used to bath apply solutions. Data acquisition and off-line analyses required Patchmaster/Fitmaster software (HEKA Electronik, Lamprecht, Germany) and Origin 8.5.1 (Origin Lab, Northampton, MA, USA).

Arg539Lys rat TRPV2 = Arg539Lys rat TRPV2 (Rattus norvegicus, UniProt Q9WUD2, R539K)
Method: as §1, §2

Arg535Lys rat TRPV2 = Arg535Lys rat TRPV2 (Rattus norvegicus, UniProt Q9WUD2, R535K)
Method: as §1, §2

His521Ala rat TRPV2 = His521Ala rat TRPV2 (Rattus norvegicus, UniProt Q9WUD2, H521A)
Method: as §1, §2

[2] = target: His521Ala/Arg539Lys rat TRPV2 (Rattus norvegicus, UniProt Q9WUD2, H521A/R539K)
Method: as §1, §2

Thr522Ala rat TRPV2 = Thr522Ala rat TRPV2 (Rattus norvegicus, UniProt Q9WUD2, T522A)
Method: as §1, §2

His521Asn rat TRPV2 = His521Asn rat TRPV2 (Rattus norvegicus, UniProt Q9WUD2, H521N)
Method: as §1, §2

Tyr525Ala rat TRPV2 = Tyr525Ala rat TRPV2 (Rattus norvegicus, UniProt Q9WUD2, Y525A); details: with either 2-APB or heat
Method: as §1, §2

wildtype rat TRPV2 [3] = target: T1, wildtype rat TRPV2; assay: Whole-cell patch recordings, current density with 2-APB alone and 2-APB co-applied with CBD; assay type: cell-based; parameters: expressed in transfected cells; host or cells: HEK293T; details: for current density: Mean ± SEM, N = 7
Method: as §1, §2

[4] = HEK293T, held at −60 mV, mean ± S.E.M.

His521Ala/Arg539Lys rat TRPV2, sequence (Q9WUD2 whole entry H521A/R539K): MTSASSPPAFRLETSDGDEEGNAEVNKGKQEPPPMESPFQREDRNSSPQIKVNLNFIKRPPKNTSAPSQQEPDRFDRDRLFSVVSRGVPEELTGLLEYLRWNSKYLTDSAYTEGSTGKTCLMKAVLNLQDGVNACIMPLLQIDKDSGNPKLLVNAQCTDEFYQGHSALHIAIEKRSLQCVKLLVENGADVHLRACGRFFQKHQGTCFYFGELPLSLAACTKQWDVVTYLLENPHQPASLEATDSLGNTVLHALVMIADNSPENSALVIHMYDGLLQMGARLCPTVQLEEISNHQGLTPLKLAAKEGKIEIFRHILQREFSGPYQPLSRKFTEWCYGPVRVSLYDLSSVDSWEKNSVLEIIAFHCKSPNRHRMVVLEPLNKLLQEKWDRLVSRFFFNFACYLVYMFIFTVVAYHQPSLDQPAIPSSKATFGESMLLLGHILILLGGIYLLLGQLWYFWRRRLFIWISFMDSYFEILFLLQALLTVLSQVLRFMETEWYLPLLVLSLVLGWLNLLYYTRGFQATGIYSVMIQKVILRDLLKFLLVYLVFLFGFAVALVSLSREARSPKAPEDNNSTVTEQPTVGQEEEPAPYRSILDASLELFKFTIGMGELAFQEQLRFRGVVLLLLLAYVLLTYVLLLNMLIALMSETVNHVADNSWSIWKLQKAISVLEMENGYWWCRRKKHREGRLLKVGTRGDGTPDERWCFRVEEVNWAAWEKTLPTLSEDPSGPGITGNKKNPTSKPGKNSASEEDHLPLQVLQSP
Arg539Lys rat TRPV2, sequence (Q9WUD2 whole entry R539K): as the sequence (Q9WUD2 whole entry H521A/R539K) above, with A521H counted along it
His521Asn rat TRPV2, sequence (Q9WUD2 whole entry H521N): as the sequence (Q9WUD2 whole entry H521A/R539K) above, with A521N, K539R counted along it
His521Ala rat TRPV2, sequence (Q9WUD2 whole entry H521A): as the sequence (Q9WUD2 whole entry H521A/R539K) above, with K539R counted along it
Arg535Lys rat TRPV2, sequence (Q9WUD2 whole entry R535K): as the sequence (Q9WUD2 whole entry H521A/R539K) above, with A521H, R535K, K539R counted along it
Thr522Ala rat TRPV2, sequence (Q9WUD2 whole entry T522A): as the sequence (Q9WUD2 whole entry H521A/R539K) above, with A521H, T522A, K539R counted along it
Tyr525Ala rat TRPV2, sequence (Q9WUD2 whole entry Y525A): as the sequence (Q9WUD2 whole entry H521A/R539K) above, with A521H, Y525A, K539R counted along it

- Hill coefficient (wildtype rat TRPV2 [1]; wildtype): 3.0 ± 0.2
- EC50 (wildtype rat TRPV2 [1]; wildtype rat TRPV2, HEK293T, held at −60 mV, mean ± S.E.M.): 322 ± 27 µM
- Hill coefficient (Arg539Lys rat TRPV2; Arg539Lys): 5.6 ± 1.1
- EC50 (Arg539Lys rat TRPV2; Arg539Lys, HEK293T, held at −60 mV, mean ± S.E.M.): 683 ± 78 µM
- Current (minus Leak) (Arg539Lys rat TRPV2; rTRPV2 - R539K, 2-APB 50µM, single cell): 6.3 and 7.05 and 6.6
- Hill coefficient (Arg535Lys rat TRPV2): 3.3 ± 0.5
- EC50 (Arg535Lys rat TRPV2; [4]): 79 ± 11 µM
- Hill coefficient (His521Ala rat TRPV2): 3.3 ± 0.3
- EC50 (His521Ala rat TRPV2; [4]): 991 ± 131 µM
- Hill coefficient ([2]; His521Ala/Arg539Lys): 5.2 ± 0.6
- EC50 ([2]; His521Ala/Arg539Lys, HEK293T, held at −60 mV, mean ± S.E.M.): 1750 ± 125 µM
- decrease in 2-APB sensitivity ([2]; double mutant compared to the wildtype TRPV2): fivefold
- Hill coefficient (Thr522Ala rat TRPV2): 3.0 ± 0.3
- EC50 (Thr522Ala rat TRPV2; [4]): 232 ± 43 µM
- Hill coefficient (His521Asn rat TRPV2): 4.3 ± 0.3
- EC50 (His521Asn rat TRPV2; HEK293T, held at −60 mV): 742 ± 14 µM
- membrane currents evoked (Tyr525Ala rat TRPV2): could not evoke any membrane currents
- current density (wildtype rat TRPV2 [3]; 2-APB alone 10 μM): 0.98 ± 0.1 pA/pF
- current density (wildtype rat TRPV2 [3]; 2-APB alone 30 μM): 2.8 ± 0.3 pA/pF
- current density (wildtype rat TRPV2 [3]; 2-APB alone 100 μM): 24.9 ± 3.7 pA/pF
SMILES: NCCOB(c1ccccc1)c1ccccc1 [2-APB, 2-aminoethoxydiphenyl borate]
- current (wildtype rat TRPV2 [3]; 2-APB alone 10 µM, single cell): 12.35 and 14.18 and 12.95 and 20 and 11.76 and 11.18
